Literature values as cited in patent US20220125811A1, “INJECTABLE COMPOSITION FOR INDUCING LIPOLYSIS AND METHOD USING THE SAME” (priority 2020, published 2022).

Conditions: half saline; 5 mEq sodium bicarbonate (8.4%); 6 cc multivitamin formulation; 10 cc amino acid formulation

- osmolarity of the ingredient amount used in the calculation: 10 mOsm
SMILES: O=C([O-])O.[Na+] [sodium bicarbonate (8.4%), sodium bicarbonate]
